99 compounds from ChEMBL document CHEMBL3507680, “University of Dundee, Gates Library screen for HepG2 cell viability” can be followed below.

A short description of the data set: Human HepG2 cell viability assay in 384 well format. It is filed as toxicity, cell-based. Also on record: dose 125 nL, time 70.5 hour; concentration not given beside the values. The settings on record: HepG2 cells, read-out: Inhibition.
Consider `COCCN1CCCC(c2nccnc2Nc2nc(C)cs2)C1` (centres undefined), for which the cytotoxicity at 70.5 h is -4.96%.

For the compound `CN(C)S(=O)(=O)N1C[C@@H]2COC[C@]2(COc2ccccn2)C1`, the cytotoxicity at 70.5 h is -17.2%. The same measure for `CN1CCC(C(=O)N2CCN(Cc3cccc(Cl)c3)CC2)CC1=O` (centres undefined): 3.2%; for `CN(CC(=O)Nc1cccnc1)CC1CCCN1c1cccnn1` (centres undefined): -7.79%; for `COc1ccc(OC)c(C(=O)N(C)Cc2ncc(C)c(OC)c2C)c1`: -9%.

For the compound `CC(C)CCN1CCN(Cc2nc(C3CC3)no2)CC1`, the cytotoxicity at 70.5 h was 20.6%. The same measure for `CNC(=O)CCNC(=O)c1cc(C)n(-c2cccc(OC)c2)c1C`: -8.45%; for `OC1(c2ccc(F)cc2)CCN(Cc2ccccc2N2CCCC2)CC1`: 52.6%.

On to `Cn1cnc(S(=O)(=O)Nc2cc(C(N)=O)ccc2Cl)c1`, for which the cytotoxicity at 70.5 h was -8.58%.

For the compound `c1ncn(CC2CCCN(Cc3nc(-c4ccoc4)no3)C2)n1` (centres undefined), the cytotoxicity at 70.5 h was -10.5%. The result for `Cc1noc(C)c1-c1cc(CCC2CN(CCC(N)=O)CCO2)ncn1` (centres undefined) reads -2.2%. The result for `O=C(COc1ccc2c(c1)OCC2O)NCc1ccco1` (centres undefined) reads -0.449%; that for `COc1ncccc1NC(=O)N(Cc1ccc(C)o1)C1CC1`, -9.49%; that for `Cc1cccc(C(=O)Nc2cccc3c2C(=O)NC3)n1`, -5.67%.

Regarding `Cc1cccc(-c2noc(CN3CCC(c4ccn[nH]4)CC3)n2)c1`, the cytotoxicity at 70.5 h was -1.2%. The result for `O=C(NCc1ccccc1Cn1cncn1)N1CCCC1` reads -12.2%. The result for `Cc1ccc(CCNC(=O)N2CCCC(Cc3nccn3C)C2)cn1` (centres undefined) reads 1.34%. The result for `CC(C)c1nn(C)c(Cl)c1CNCC(O)c1cccc(F)c1` (centres undefined) reads -10.3%. With `CN(C)C(=O)c1cc(-c2ccc(S(C)(=O)=O)cc2)c2cnn(C)c2n1`, the cytotoxicity at 70.5 h is -7.12%. The same measure for `CS(=O)(=O)c1ccc(OCCCN2CCc3cncnc3C2)cc1`: 23.6%; for `O=C(NCCc1cscn1)c1coc(CN2CCOCC2)c1`: -8.02%. On to `Cc1cc(Cl)ccc1-n1ncc(C(=O)NCC2COC(C)(C)O2)c1N` (centres undefined), for which the cytotoxicity at 70.5 h is 23.9%. The same measure for `CC(=O)N1CCN(CCNS(=O)(=O)c2cc(F)ccc2C)CC1`: 4.62%; for `O=S(=O)(NCCc1cn2ccccc2n1)N1CCOCC1`: -7.24%.

`Cc1cc(C(=O)N2CC[C@H]3[C@H](C[C@@H](CN4CCCC4)N3C)C2)c(C)o1`: the cytotoxicity at 70.5 h was determined as 1.81%. `CC(C)C1CN(C(=O)c2cc(=O)[nH]c(=O)[nH]2)CCC(=O)N1CC1CC1` (centres undefined): the cytotoxicity at 70.5 h was -2.3%.

`CC(=O)N1CCC(C(=O)N2CCCC(Cc3cccc(C)n3)C2)CC1` (centres undefined): the cytotoxicity at 70.5 h was -4.08%.

`Cc1ccc(C(=O)Nc2nnc(C(C)C)s2)c(-n2cnnn2)c1C`: the cytotoxicity at 70.5 h was -5.81%. The same measure for `Cc1nnc(NCc2cccnc2N(C)C)c(C#N)c1C`: 2.49%; for `O=C(CCCn1ccnc1)N[C@H]1CN(C2CCCC2)C[C@@H]1C1CC1`: -11.7%. The result for `CN1CCCN(C(=O)c2cnc(C(C)(C)C)nc2O)CC1` reads 0.369%; that for `COCCC(=O)N1CCCCC1c1ccc(F)cc1` (centres undefined), 5.22%. The result for `N#Cc1ccc2c(c1)CN(C(=O)C1CC=CC1)C2c1cnco1` (centres undefined) reads -6.37%; that for `O=C(O)c1ccccc1-c1ccc(CN2CCCC(O)C2)cc1` (centres undefined), -8.74%.

On to `CS(=O)(=O)NCC1CCCCN1C(=O)c1csc(-c2ccsc2)n1` (centres undefined), for which the cytotoxicity at 70.5 h was determined as 0.102%.

As to `CN1[C@H]2CC[C@@H]1CN(C(=O)c1sccc1S(N)(=O)=O)CC2`, the cytotoxicity at 70.5 h was -4.92%. Regarding `Cc1occc1C(=O)N1CCOCC2(CCN(C3CCOCC3)C2)C1` (centres undefined), the cytotoxicity at 70.5 h was -19.7%. Take `CCc1ccsc1C(=O)N1CCN(CC(N)=O)CC1`: the cytotoxicity at 70.5 h came out at 13.8%. The same measure for `CC(=O)NCC(=O)NC1CCc2nccn2C1` (centres undefined): 7.09%. The result for `Cc1nc(O)c2nnn(C[C@H]3CCCN3C(=O)C3CCCC3)c2n1` reads -4.22%; that for `O=C(c1cscn1)N1C[C@@H]2[C@@H](C1)OCC(=O)N2CC1CCCC1`, -6.35%. On to `CCOC1CCN(C(=O)c2c(Cl)c3ccccc3n2C)CC1`, for which the cytotoxicity at 70.5 h is -7.26%. The result for `CCc1nnc(NCc2cccc(OC)c2OC)o1` reads 8.49%; that for `CN(Cc1ccccc1)C(=O)c1cc2c(c(S(N)(=O)=O)c1)CCC2`, 30.7%; that for `CCC(CNC(=O)Cn1ccnc1)Oc1cccc(F)c1` (centres undefined), 21.1%.

Take `CC(=O)N1Cc2nccn2CC(CNC(=O)c2ccnnc2)C1` (centres undefined): the cytotoxicity at 70.5 h came out at 9.01%. Take `CCc1cnc(CN(C)C2CCN(Cc3nnc(C4CC4)n3C)C2)o1` (centres undefined): the cytotoxicity at 70.5 h is -2.36%. The same measure for `CCNc1cc2c(nn1)CCN(C(=O)CCc1c(C)noc1Cl)C2`: -4.23%; for `COCCc1ncc(CNC2(c3ccc(Cl)cc3Cl)CC2)cn1`: -1.55%; for `CCOc1ccccc1C(CC(=O)Nc1ccccc1)NC(C)=O` (centres undefined): -6.59%. The same measure for `Cc1ccc(S(=O)(=O)N(C)Cc2cnccn2)cc1N(C)C`: -1.07%; for `CCn1ccnc1CN1CCCN(C(=O)c2scnc2C)CC1`: -11.5%; for `COc1cccc(CNc2cc(N3CCCC3CO)ncn2)n1` (centres undefined): -0.345%. The result for `Cc1nsc(C(=O)NCCc2ccc(S(N)(=O)=O)cc2)n1` reads -5.58%. In the case of `Cc1ccc(N2CCCC(NCc3cscn3)C2)nn1` (centres undefined), the cytotoxicity at 70.5 h is -11.8%. On to `CCc1oc2ccc(NS(C)(=O)=O)cc2c1C(=O)OC`, for which the cytotoxicity at 70.5 h was 0.398%. Take `CN(Cc1cccc(-n2cccn2)c1)C(=O)c1ccnc(N)c1`: the cytotoxicity at 70.5 h came out at 3.21%. The result for `Cn1cc(C(=O)N2CCCN(c3cccnn3)CC2)c2ccccc21` reads -0.532%; that for `COc1ccccc1C1(CNc2nnc(C)c(C)c2C#N)CCCC1`, 2.69%. The result for `Cc1nc(CN2CCCC(Nc3ncnc4c3CCC4)C2)no1` (centres undefined) reads -7.99%. The same measure for `O=C(NCCc1ccccn1)NC1CCN(c2ccccc2)C1=O` (centres undefined): 1.75%; for `CS(=O)(=O)N1CCC(CNC(=O)C2CCCC2)CC1`: -16%; for `CCC(C)(CO)NC(=O)Nc1cc2c(cc1SC)OCCO2` (centres undefined): -1.22%.

With `Cc1occc1C(=O)N1CCCC2(CCN(CCN3CCCC3)C2=O)C1` (centres undefined), the cytotoxicity at 70.5 h is -11.9%. The result for `Cc1ccc(N2C[C@H](C(=O)N3CCOCC3)[C@@H]3CCO[C@@H]3C2)nn1` reads -11.3%; that for `CC(=O)c1ccc(C(=O)N2C[C@@H]3CC[C@H](C2)N(CC2CCC2)C3)s1`, -3.03%; that for `CCc1ncnc2c1CCN(S(=O)(=O)CC)CC2`, -7.89%. The result for `CCOc1ncccc1NC(=O)c1cc(C)c(C)s1` reads -7.38%.

Turning to `CC(C)NC(=O)N1CCC2(COCc3cnc(-c4cccnc4)nc32)C1` (centres undefined), the cytotoxicity at 70.5 h was -2.99%. Consider `CN1[C@@H](C(=O)NCC2CC2)C[C@H]2CN(Cc3cccc(C#N)c3)C[C@H]21`, for which the cytotoxicity at 70.5 h is -13.8%. The result for `CC(C)N1CCC(Cc2cncc(-c3cc(F)ccc3C(=O)O)n2)CC1` reads 0.0602%; that for `CCn1cc2c(n1)C(COCC1CC1)CN(c1ccc(C)nn1)C2` (centres undefined), -16.7%.

With `CSC(C)C(=O)NS(=O)(=O)c1ccc(F)c(C(F)(F)F)c1` (centres undefined), the cytotoxicity at 70.5 h was 22.2%. The same measure for `CN(CC(F)(F)F)C(=O)CNC(=O)Cc1ccc(O)cc1Cl`: -9.7%; for `CCCn1c(N2CCCC2)nc2c(C)nn(C)c2c1=O`: -6.89%. The same measure for `N#Cc1cccc(CN2C(=O)C3(CCNCC3)Nc3ccccc32)c1`: 13.4%; for `NC(=O)C(NCc1cccs1)c1ccccc1` (centres undefined): -9.69%; for `CCn1cc2c(n1)C(COC)CN(C(=O)CCOc1ccccc1)C2` (centres undefined): -12.3%.

In the case of `Cc1ccc(C2CSCCN2C(=O)NCc2cccnc2)cc1` (centres undefined), the cytotoxicity at 70.5 h was -10.1%. The result for `CC(C)C(=O)NCCNC(=O)CCOc1cccc(F)c1` reads -11.3%; that for `CCCC(C)CS(=O)(=O)NCc1cccnc1N(C)C` (centres undefined), -1.93%.

Turning to `Cc1cc(C(=O)NC(COCC(C)C)c2ccco2)no1` (centres undefined), the cytotoxicity at 70.5 h is -1.3%. The same measure for `CN(CCCOc1ccc(F)cc1)S(=O)(=O)c1cnn(C)c1`: -8.61%; for `COc1ccc(CCCC(=O)N2C[C@H](C3CC3)[C@@H](N(C)C)C2)cc1`: -9.86%. The same measure for `CCc1ncncc1C(=O)NCCNS(=O)(=O)c1ccccc1`: 13.9%; for `CN(C)C(=O)c1cccc(CN2CCN(CC(O)C(C)(C)C)CC2)c1` (centres undefined): -11.5%.

`COc1ccc2c(c1)OCC(CNC1CCc3ncnn3C1)=C2` (centres undefined): the cytotoxicity at 70.5 h is -0.263%. On to `Cc1ccc(C(=O)N(C)CC(=O)NCC(F)(F)F)cn1`, for which the cytotoxicity at 70.5 h was 0.05%. The result for `Cc1cc2ccccc2n1CC(=O)NCC(=O)N1CCOCC1` reads -13.2%; that for `O=C1CC2(CCCCN2C(=O)c2ccoc2)CN1Cc1ccccc1` (centres undefined), 3.41%. The result for `CCOC(=O)C(C)NC(=O)N1CCN(c2nc3ccccc3n2C)CC1` (centres undefined) reads -2.33%; that for `COc1ccc(CC2(CO)CCN(c3cc(C(N)=O)ccn3)CC2)cc1`, -2.15%.

For the compound `CCOC(=O)NC(=O)CSC(C)c1ccccc1F` (centres undefined), the cytotoxicity at 70.5 h is -14.4%. Turning to `CCCNS(=O)(=O)c1cnccc1N1CCN(C(C)C)CC1`, the cytotoxicity at 70.5 h was 7.02%. The same measure for `Oc1ccc(Br)c(CNc2cccc(-c3nnc[nH]3)c2)c1`: 1.61%; for `COc1ccc(CN(CC2CCCO2)c2nc3c(s2)c(C)nn3C)cc1` (centres undefined): 41.8%; for `COCCC(=O)N1CCC(c2nnc(-c3ccsc3)o2)CC1`: -6.73%.

Regarding `CCOCCNC(=O)c1cnc(Sc2nccn2C)c(Cl)c1`, the cytotoxicity at 70.5 h worked out at 2.36%. With `O=C(c1cnco1)N1CCC(Cc2cccc3ncccc23)CC1`, the cytotoxicity at 70.5 h was found to be 20.4%.
